The conditions of series [1]: cited from earlier work.
For series [2], the system named is Aspergillus niger mixed with Penicillium funiculosum. Briefly: Fungal efficacy on dry paint film (Modified ASTM 5590), pool An + Pf. It counts as cell-based. The note with it: for % Inhibition: at the total conc for the same composition. The method, then: (§1) Each sample was tested in duplicate.
(§2) The SI is calculated based on F. C. Kull et.
(§3) SI value of <1 in the formula indicates a synergism of the blended biocides exists.
(§4) NE=no end point at the concentration tested that will meet the percent inhibition criteria set in each SI calculation.

A further series deals with Ap-Ch. Briefly: Fungal efficacy on dry paint film (Modified ASTM 5590), pool Ap-Ch. It counts as cell-based, Aureobasidium pullulans + Cladosporium herbarum. The method, then:
as §1, §2, §3, §4

In the next series the test system is Aa-Tv. Briefly: Fungal efficacy on dry paint film (Modified ASTM 5590), pool Aa-Tv. It is filed as cell-based, Alternaria alternata + Trichoderma viride. As for the experimental part:
as §1, §2, §3, §4

Series [3] concerns Gloeocapsa sp. and Oscillatoria sp. Description: Algal efficacy on dry paint film (Modified ASTM 5589), pool Gs + Os (Os-Gl). It counts as cell-based. The method, then: as §1
(§5) In this synergy study, three pool of mixed algae were prepared as the test inoculum, Gloeocapsa sp. and Oscillatoria sp. a mix of cyanobacteria grown on BG-11 media; Chlorella sp., Chlorella kessleri, and Nostoc commune are unicellular chlorphytes that were mixed and grown on Bold media; Trentepohlia aurea, Tretepohlia odorata, and Calotrix parientina are filamentous algae that were mixed and grown on Bold media.
(§6) The plates were incubated at room temp (25° C.-26° C.) with cyclic exposure to light (OTT-Lite model # OTL4012P, 40 Watt, 26 KLumen) and dark phases, for a period of four weeks. The total area covered was evaluated at the end of each week according to percent area covered in 5% increments.
as §2, §3, §4

The test system of series [4] is Chlorella sp., Chlorella kessleri, and Nostoc commune. Briefly: Algal efficacy on dry paint film (Modified ASTM 5589), pool Cs + Ck + Nc (Ch-No). It is filed as cell-based. The method, then:
as §1, §5, §6, §2, §3, §4

Series [5] has as its system Trentepohlia aurea, Tretepohlia odorata, and Calotrix parientina. Briefly: Algal efficacy on dry paint film (Modified ASTM 5589), pool Cp + To + Ta (Cal-Tre). It is filed as cell-based. As for the experimental part: as §1, §5, §6, §2, §3, §4
[6] abbreviates: at the total conc for the same composition.

As for `O=C(O)CNCP(=O)(O)O` [glyphosate, N-(phosphonomethyl)glycine], the solubility in water entry in series [1] is listed as “relatively high solubility in water”.

One may read the % Inhibition as the change of the read-out against control, counted positive when it falls. As for zinc glyphosate, the “% Inhibition” value in series [2] was 70%.

On to `c1ccc2[nH]c(-c3cscn3)nc2c1` [TBZ, thiabendazole], for which the “% Inhibition” value in the series with Ap-Ch (setting [6]) came out at 100%; in the series with Aa-Tv (setting [6]), 0%; in series [3] (setting [6]) it was 80%; in series [4] (setting [6]) it was 80%; in series [2], 70%; in series [5] (setting [6]), 80%. Also, the “Total conc (minimum inhibitory concentration chosen for SI)” value with Ap-Ch (total actives in paint) is reported as 1650 pppm; with Aa-Tv (total actives in paint) it was 3300 pppm; in series [3] (total actives in paint) it was 3300 pppm; in series [4] (total actives in paint), 2475 pppm; in series [2] (total actives in paint) it was 2475 pppm; in series [5] (total actives in paint), 1650 pppm.

Source of the values: patent publication US8691725B2, “Synergistic combination of a glyphosate compound and TBZ” (Dow Global Technologies LLC, priority 2010, dated 2014).
